What was measured:
[1] = test system: Bactrocera dorsalis; assay: B. dorsalis spatial deterrence, two-choice traps baited with guava juice; type: in vivo; settings: tested individually
Protocol: In addition to CFA, a series of odd-numbered carbon fatty acids (C9:0 to C17:0) and fatty acid methyl esters were evaluated for the spatial deterrence to B. dorsalis that results in oviposition reduction. Table 3 below lists the fatty acid methyl esters tested for spatial repellency for Bactrocera dorsalis. […] FIG. 16A, FIG. 16C, FIG. 16E, FIG. 16G, FIG. 16I, FIG. 16K, FIG. 16M, FIG. 16O, FIG. 16Q, and FIG. 16S show the mean numbers (±SEM) of mated female B. dorsalis flies captured, and FIG. 16B, FIG. 16D, FIG. 16F, FIG. 16H, FIG. 16J, FIG. 16L, FIG. 16N, FIG. 16P, FIG. 16R, and FIG. 16T show the number of B. dorsalis eggs oviposited in traps baited with guava juice (control) and with guava juice plus one of the coconut fatty acid methyl ester compounds in two-choice bioassays. For each test, different letter on the bar indicate a significant difference by Tukey-Kramer tests at P<0.05, n=4.

[2] = test system: Drosophila suzukii (SWD); assay: SWD laboratory no-choice oviposition test on raspberries; type: in vivo; settings: 20 mg CFA or 20 mg CFA equivalent dose, 24 hours
Protocol: Laboratory no-choice test The oviposition deterrence of the key-component blend determined from the “Laboratory choice test 2” described above (2c blend composed of C8:0 and C10:0; Table 2) was tested using a no-choice bioassay in Geneva, New York, USA using organic raspberries purchased from a local grocery and using 30 cm×30 cm×30 cm screened cages as described above. Each cage held four raspberries on a 10 cm diameter glass petri dish lined with filter paper and assigned to one of five treatments: 1) 20 mg of CFA/200 μL hexane/raspberry, 2) C8:0 at 20 mg CFA equivalent dose/200 μL hexane/raspberry, 3) C10:0 at 20 mg CFA equivalent dose/200 μL hexane/raspberry, 4) 2c blend at 20 mg CFA equivalent dose/200 μL hexane/raspberry, or 5) 200 μL of hexane control/raspberry (see Table 2 for equivalent doses). Twenty SWD females (5 days old) were released into each cage and allowed to oviposit on raspberries over 24 hours in an environmental chamber (25° C., 55% RH, 16:8 L:D). At the end of each trial, the raspberries were inspected under a dissecting microscope and the eggs were counted. The experiment was replicated eight times per treatment.

[3] = test system: Zeugodacus cucurbitae; assay: Z. cucurbitae two-choice oviposition bioassay on pumpkin juice-infused agar; type: in vivo; set-up: key to Behavioral activity (Z. cucurbitae oviposition group): Negative: “negative” (i.e., oviposition reduced); Neutral: “neutral” (i.e., no effect on oviposition); Positive: “positive” (i.e., oviposition increased); settings: for Behavioral activity (Z. cucurbitae oviposition group): individual CFFA component; for Z. cucurbitae oviposition reduction vs control agar: individual compound, 20 mg dose
Protocol: Oviposition bioassays were conducted with mated female flies, using pumpkin juice-infused agar as an oviposition substrate. A small petri dish (60×15 mm) filled with 10 mL of 1% agar mixed in pumpkin juice was used as an oviposition substrate. The agar plates were surface-treated either with 200 μL of ethanol or 200 μL of CFFA in one of 4 doses tested (20, 2, 0.2, and 0.02 mg/200 μL of ethanol), placed into a fume hood for 10 minutes for solvent evaporation prior to use in bioassays, and positioned upside-down (i.e. treated side down) on top of the 30×30×30 cm (W×L×H) screened cage 17 cm apart from each other (i.e. one each of control and CFFA treated), allowing 20 female flies (14 to 18 day-old) to oviposit on pumpkin juice agar from the bottom through the cage screen for 24 hours. Each cage was provided with a ball of water-saturated cotton, sugar, and protein hydrolysate in separate 30 mL deli cups and two oviposition substrates-one treated with CFFA diluted in ethanol and the other treated with the ethanol control. After 24 hours, Z. cucurbitae eggs in the pumpkin agar were gently separated from the agar in water and the number of eggs were individually counted. The experiment was replicated five times per treatment. CFFA was not an effective oviposition deterrent for Z. cucurbitae which is contrary to our previous work on B. dorsalis (Roh et al., 2023a). […] CFFA components were categorized into three groups “negative” (i.e., oviposition reduced), “neutral” (i.e., no effect on oviposition), and “positive” (i.e., oviposition increased) based on bioassay outcome. Using these categories, further formulations were made to determine key bioactive CFFA components in terms of oviposition deterrence on Z. cucurbitae at the equivalent ratios and concentrations of each component found in CFFA (Zhu et al. 2018). The approach involved testing the bioactivity of the negative-component blend (4c blend) for oviposition deterrence at three different doses (2, 0.2, and 0.02 mg CFFA equivalent/agar), compared with ethanol control. Further, neutral compound is added to the negative blend i.e., ‘negative+neutral’ component blend (5c blend) to identify key compounds for oviposition deterrence. The experiment was replicated five times per treatment.

[4] = test system: non-SWD drosophilids; assay: Field test 2: sentinel raspberries in guava orchard, non-SWD drosophilids; type: in vivo, D. immigrans, D. simulans, D. melanogaster; settings: 20 mg CFA or equivalent dose/raspberry, 2 days
Protocol: (§1) Field test 2 The oviposition deterrence of the 2c key-component blend and its two individual components against SWD and non-SWD drosophilids was tested under field conditions. This experiment was conducted in a guava orchard (19° 36′33.6″N, 155° 04′ 12.6″W) located near Hilo, Hawaii. To monitor oviposition, four sentinel organic raspberries purchased from a local grocery were placed (receptacles stuffed with cotton) inside a deli cup (600 mL; Placon, Madison, Wisconsin, USA). Each cup had nine 1 cm diameter holes spaced 3 cm apart along the cup's circumference and 8.5 cm from the bottom, which allowed the drosophilids to enter the cup. The four raspberries in each cup were surface-treated with one of five treatments: 1) 2c blend at 20 mg CFA equivalent/200 μL hexane/raspberry, 2) C8:0 at 20 mg CFA equivalent/200 μL hexane/raspberry, 3) C10:0 at 20 mg CFA equivalent/200 μL hexane/raspberry, 4) CFA at 20 mg/200 μL hexane/raspberry, or 5) 200 μL of hexane control/raspberry. The deli-cup traps were hung in guava trees 1.5 m from the ground with at least 10 m spacing between adjacent traps. […] Raspberries were removed from the traps, placed in rearing cups (600 mL deli cup with organdy cap), held in environmental chamber (22.1±1.9° C., 71.7±3.1% RH, 16:8 L:D), and monitored over a 2-week period. All emerged adults were counted and identified as SWD or non-SWD drosophilids. […]

[5] = test system: Drosophila suzukii (SWD); assay: Field test 2: sentinel raspberries in guava orchard, SWD adults emerged; type: in vivo; settings: 20 mg CFA equivalent/raspberry, total over replicates
Protocol: as §1

Row | Compound | effect on female B. dorsalis attraction and oviposition to host fruit odors [1] | effect on SWD oviposition vs solvent control [2] | effect on Z. cucurbitae oviposition ([3]; 0.02 mg dose) | effect on Z. cucurbitae oviposition ([3]; 0.2 mg dose) | effect on Z. cucurbitae oviposition ([3]; 2 mg dose) | Behavioral activity (Z. cucurbitae oviposition group) [3] | Z. cucurbitae oviposition reduction vs control agar [3] | effect on oviposition from resident (non-SWD) drosophilids [4] | SWD adults emerging from treated raspberries [5]
1 | CCCCCCCC(=O)O [C8:0, caprylic acid] | significantly reduced | significantly reduced SWD oviposition | not | maintained oviposition deterrence | maintained oviposition deterrence | Negative | 100% | not effective | 
2 | CCCCCCCCCC(=O)O [C10:0, capric acid] |  | significantly reduced SWD oviposition |  |  | either lost oviposition deterrence or increased oviposition | Negative | 74% | not effective | 2 SWD

Source: patent US20240114902A1, “COMPOSITIONS AND METHODS FOR DETERRING OVIPOSITION BY FRUIT FLIES” (The United States of America, as represented by The …, priority 2022, published 2024)
